Reference: ChEMBL document CHEMBL4190204, “Trichoderpyrone, a Unique Polyketide Hybrid with a Cyclopentenone-Pyrone Skeleton from the Plant Endophytic Fungus Trichoderma gamsii” (J Nat Prod, 2017)

Legend:
Assay type in all cases: functional, cell-based
[1] = system: A549; assay: Cytotoxicity against human A549 cells assessed as reduction in cell viability by MTT assay
[2] = system: HepG2; assay: Cytotoxicity against human HepG2 cells assessed as reduction in cell viability by MTT assay
[3] = system: HeLa; assay: Cytotoxicity against human HeLa cells assessed as reduction in cell viability by MTT assay

Compound: C=C[C@]1(O)CC(N)=C([C@@H](C)c2c(O)cc(C)oc2=O)C1=O
- IC50 [1]: 16.9 µM
- IC50 [2]: 30.8 µM
- IC50 [3]: 33.9 µM

Compound: COc1cc([C@@H]2c3cc4c(cc3[C@@H](O[C@@H]3O[C@@H]5CO[C@@H](C)O[C@H]5[C@H](O)[C@H]3O)[C@H]3COC(=O)[C@H]23)OCO4)cc(OC)c1O [ETOPOSIDE]
- IC50 [1]: 16.6 µM
- IC50 [2]: 16.1 µM
- IC50 [3]: 15 µM
